Reference: ChEMBL document CHEMBL3994622, “Design and synthesis of new RAF kinase-inhibiting antiproliferative quinoline derivatives. Part 2: Diarylurea derivatives” (Eur J Med Chem, 2017)

Legend:
Format in all cases: functional
SW-620 = assay: Growth inhibition of human SW620 cells assessed as cell growth at 50 uM incubated for 48 hrs by sulforhodamine B assay relative to control; settings: SW-620, 48 h, read-out: Activity
K562 = assay: Growth inhibition of human K562 cells assessed as cell growth at 0.005 uM incubated for 48 hrs by sulforhodamine B assay relative to control; settings: K562, 48 h, read-out: Activity
SN12C = assay: Growth inhibition of human SN12C cells assessed as cell growth at 5 uM incubated for 48 hrs by sulforhodamine B assay relative to control; settings: read-out: Activity
NCI-H522 = assay: Growth inhibition of human NCI-H522 cells assessed as cell growth at 0.05 uM incubated for 48 hrs by sulforhodamine B assay relative to control; settings: NCI-H522, 48 h, read-out: Activity
NCI-H23 = assay: Growth inhibition of human NCI-H23 cells assessed as cell growth at 5 uM incubated for 48 hrs by sulforhodamine B assay relative to control; settings: NCI-H23, 48 h, read-out: Activity
UACC-257 = assay: Growth inhibition of human UACC257 cells assessed as cell growth at 0.005 uM incubated for 48 hrs by sulforhodamine B assay relative to control; settings: UACC-257, 48 h, read-out: Activity
NCI/ADR-RES = assay: Growth inhibition of human NCI/ADR-RES cells assessed as cell growth at 0.05 uM incubated for 48 hrs by sulforhodamine B assay relative to control; settings: read-out: Activity
MDA-MB-435 = assay: Growth inhibition of human MDA-MB-435 cells assessed as cell growth at 50 uM incubated for 48 hrs by sulforhodamine B assay relative to control; settings: MDA-MB-435, 48 h, read-out: Activity
NCI-H460 = assay: Growth inhibition of human NCI-H460 cells assessed as cell growth at 0.005 uM incubated for 48 hrs by sulforhodamine B assay relative to control; settings: NCI-H460, 48 h, read-out: Activity

Compound `COc1cc2cc(Oc3ccc(NC(=O)Nc4cccc(C(F)(F)F)c4)cc3)c(C)nc2cc1OC` has a growth at 50 µM (SW-620) of -37%, a growth at 0.005 µM (K562) of 102% and a growth at 5 µM (SN12C) of 22%. For the same compound, the growth at 0.05 µM (NCI-H522) was 92%, the growth at 5 µM (NCI-H23) was 9% and the growth at 0.005 µM (UACC-257) was 95%. It also gave a growth at 0.05 µM (NCI/ADR-RES) of 101%, a growth at 50 µM (MDA-MB-435) of -29% and a growth at 0.005 µM (NCI-H460) of 96%.
